In article PMC10693532, “The cardiac glycoside ZINC253504760 induces parthanatos-type cell death and G2/M arrest via downregulation of MEK1/2 phosphorylation in leukemia cells” (Cell Biology and Toxicology, 2023):

Key:
MEK1 = target: T1, MEK1 (Homo sapiens, UniProt Q02750); assay: microscale thermophoresis, labelled recombinant human MEK1; type: binding
T1 construct: gene MAP2K1

MEK2 = target: T2, MEK2 (Homo sapiens, UniProt P36507); assay: microscale thermophoresis, labelled recombinant MEK2; type: binding
T2 construct: gene MAP2K2
T2 sequence (P36507 whole entry): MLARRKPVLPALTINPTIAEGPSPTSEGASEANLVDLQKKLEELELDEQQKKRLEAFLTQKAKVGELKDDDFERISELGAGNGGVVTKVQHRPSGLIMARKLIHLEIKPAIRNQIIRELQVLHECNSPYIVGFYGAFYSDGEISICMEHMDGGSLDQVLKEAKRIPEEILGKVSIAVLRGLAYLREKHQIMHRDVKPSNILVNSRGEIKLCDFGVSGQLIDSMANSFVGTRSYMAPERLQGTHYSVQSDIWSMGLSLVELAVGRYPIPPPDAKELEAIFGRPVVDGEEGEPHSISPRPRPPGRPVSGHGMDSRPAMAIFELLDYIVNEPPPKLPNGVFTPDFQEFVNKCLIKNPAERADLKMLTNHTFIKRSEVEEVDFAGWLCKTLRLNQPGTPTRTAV

T1 sequence (Q02750 whole entry): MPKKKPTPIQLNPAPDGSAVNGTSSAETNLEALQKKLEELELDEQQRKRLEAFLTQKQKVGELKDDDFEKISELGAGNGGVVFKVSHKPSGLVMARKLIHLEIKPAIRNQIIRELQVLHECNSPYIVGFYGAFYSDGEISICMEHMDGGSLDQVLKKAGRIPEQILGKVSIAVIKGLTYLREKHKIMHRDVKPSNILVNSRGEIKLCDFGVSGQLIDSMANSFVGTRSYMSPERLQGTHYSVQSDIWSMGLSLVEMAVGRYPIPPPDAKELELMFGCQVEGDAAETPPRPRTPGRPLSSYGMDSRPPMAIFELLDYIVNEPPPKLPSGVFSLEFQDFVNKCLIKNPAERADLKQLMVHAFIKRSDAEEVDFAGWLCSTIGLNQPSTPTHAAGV

Q: What does the source list for C[C@H]1O[C@@H](O[C@@H]2[C@H](O)C[C@@H](O[C@@H]3[C@H](O)C[C@@H](O[C@H]4CC[C@@]5(C)[C@@H](CC[C@H]6[C@H]5C[C@@H](O)[C@]5(C)[C@H](C7=CC(=O)OC7)CC[C@]65O)C4)O[C@@H]3C)O[C@@H]2C)C[C@H](O)[C@@H]1O [ZINC253504760, 3-[(3S,5S,8S,9R,10S,12R,13S,14S,17S)-3-[(2S,4R,5R,6R)-5-[(2R,4R,5R,6R)-5-[(2S,4S,5S,6R)-4,5-dihydroxy-6-methyloxan-2-yl]oxy-4-hydroxy-6-methyloxan-2-yl]oxy-4-hydroxy-6-methyloxan-2-yl]oxy-12,14-dihydroxy-10,13-dimethyl-1,2,3,4,5,6,7,8,9,11,12,15,16,17-tetradecahydrocyclopenta[a]henanthrene-17-yl]-2H-furan-5-one]?
A: Kd (MEK1): 500 nM; Kd (MEK2): 2200 nM
